Data: ChEMBL document CHEMBL4828715, “Discovery, Structure-Activity Relationships, and In Vivo Evaluation of Novel Aryl Amides as Brain Penetrant Adaptor Protein 2-Associated Kinase 1 (AAK1) Inhibitors for the Treatment of Neuropathic Pain” (J Med Chem, 2021)
Calls of active or inactive are those of the source. The calls are words filed in the database; no cut-off is given here.

Columns and labels:
Rattus norvegicus [1] = experiment: Antinociceptive activity in Sprague-Dawley rat model of chronic constriction injury-induced neuropathic pain assessed as reduction in mechanical hyperalgesia 60 mg/kg, sc by Von Frey test relative to control; type: functional; parameters: scale not given: the % may be the effect or the level left
Rattus norvegicus [2] = experiment: Antinociceptive activity in Sprague-Dawley rat model of chronic constriction injury-induced neuropathic pain assessed as reduction in thermal hyperalgesia 60 mg/kg, sc by Von Frey test relative to control; type: functional; parameters: scale not given: the % may be the effect or the level left
[3] = target: Cyclin-G-associated kinase (Homo sapiens, UniProt O14976); experiment: Inhibition of wild-type human partial length GAK (G13 to Y338 residues) expressed in bacterial expression system by Kinomescan method
Cyclin-G-associated kinase, sequence (O14976 whole entry, the tested form may be a part): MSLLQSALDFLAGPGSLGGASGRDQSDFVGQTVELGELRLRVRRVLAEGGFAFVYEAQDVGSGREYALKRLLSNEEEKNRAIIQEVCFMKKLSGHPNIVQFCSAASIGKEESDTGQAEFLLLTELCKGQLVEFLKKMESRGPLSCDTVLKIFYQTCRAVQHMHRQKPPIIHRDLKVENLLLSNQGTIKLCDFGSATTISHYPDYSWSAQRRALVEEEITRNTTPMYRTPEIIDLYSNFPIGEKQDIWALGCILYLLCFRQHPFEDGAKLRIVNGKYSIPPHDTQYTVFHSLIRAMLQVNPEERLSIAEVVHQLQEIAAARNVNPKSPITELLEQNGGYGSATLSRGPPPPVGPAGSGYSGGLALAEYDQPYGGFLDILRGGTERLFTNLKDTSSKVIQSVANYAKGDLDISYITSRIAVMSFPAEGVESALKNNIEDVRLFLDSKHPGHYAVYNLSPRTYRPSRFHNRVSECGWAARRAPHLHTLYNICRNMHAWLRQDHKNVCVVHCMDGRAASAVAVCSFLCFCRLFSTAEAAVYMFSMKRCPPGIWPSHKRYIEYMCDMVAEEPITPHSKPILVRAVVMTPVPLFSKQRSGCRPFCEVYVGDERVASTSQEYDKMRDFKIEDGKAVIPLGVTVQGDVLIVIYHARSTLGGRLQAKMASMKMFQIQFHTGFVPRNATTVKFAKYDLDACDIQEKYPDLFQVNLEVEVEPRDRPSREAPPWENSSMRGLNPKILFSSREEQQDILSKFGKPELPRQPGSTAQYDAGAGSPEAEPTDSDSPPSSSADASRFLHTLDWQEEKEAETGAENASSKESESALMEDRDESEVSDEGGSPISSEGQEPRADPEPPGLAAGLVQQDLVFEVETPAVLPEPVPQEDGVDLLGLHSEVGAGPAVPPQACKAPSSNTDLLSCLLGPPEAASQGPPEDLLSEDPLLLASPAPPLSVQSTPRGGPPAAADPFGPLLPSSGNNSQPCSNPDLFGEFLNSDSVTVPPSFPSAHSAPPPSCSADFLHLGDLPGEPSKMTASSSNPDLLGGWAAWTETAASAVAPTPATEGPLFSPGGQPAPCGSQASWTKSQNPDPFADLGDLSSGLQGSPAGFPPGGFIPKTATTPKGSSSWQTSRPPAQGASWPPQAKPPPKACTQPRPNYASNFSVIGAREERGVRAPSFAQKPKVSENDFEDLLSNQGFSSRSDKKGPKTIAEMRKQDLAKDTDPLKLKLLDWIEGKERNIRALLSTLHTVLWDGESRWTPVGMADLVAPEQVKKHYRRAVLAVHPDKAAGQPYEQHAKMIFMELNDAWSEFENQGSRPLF

[4] = target: Phosphatidylinositol 5-phosphate 4-kinase type-2 beta (Homo sapiens) (UniProt P78356); experiment: Inhibition of wild-type human full length PIP5K2B (M1 to T416 residues) expressed in bacterial expression system assessed as residual binding level at 1 uM by Kinomescan method relative to control
Phosphatidylinositol 5-phosphate 4-kinase type-2 beta (Homo sapiens), sequence (P78356 whole entry, the tested form may be a part): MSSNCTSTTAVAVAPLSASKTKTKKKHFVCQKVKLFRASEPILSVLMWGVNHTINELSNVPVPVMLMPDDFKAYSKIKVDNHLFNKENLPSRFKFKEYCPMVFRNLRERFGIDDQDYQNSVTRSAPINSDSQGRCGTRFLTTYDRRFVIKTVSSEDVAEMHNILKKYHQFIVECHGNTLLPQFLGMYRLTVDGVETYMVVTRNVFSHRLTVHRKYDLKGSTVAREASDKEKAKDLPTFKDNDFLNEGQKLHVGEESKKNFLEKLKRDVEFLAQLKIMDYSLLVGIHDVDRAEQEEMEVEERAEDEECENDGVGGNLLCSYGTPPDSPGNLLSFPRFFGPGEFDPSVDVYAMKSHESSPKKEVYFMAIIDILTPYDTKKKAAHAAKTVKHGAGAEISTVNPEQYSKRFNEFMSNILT

[5] = target: T1, MAP kinase-interacting serine/threonine-protein kinase 2 (Homo sapiens, UniProt Q9HBH9); experiment: Inhibition of wild-type human partial length MKNK2 (G63 to S388 residues) expressed in mammalian expression system by Kinomescan method
Target sequence in this assay (Q9HBH9 whole entry, the tested form may be a part): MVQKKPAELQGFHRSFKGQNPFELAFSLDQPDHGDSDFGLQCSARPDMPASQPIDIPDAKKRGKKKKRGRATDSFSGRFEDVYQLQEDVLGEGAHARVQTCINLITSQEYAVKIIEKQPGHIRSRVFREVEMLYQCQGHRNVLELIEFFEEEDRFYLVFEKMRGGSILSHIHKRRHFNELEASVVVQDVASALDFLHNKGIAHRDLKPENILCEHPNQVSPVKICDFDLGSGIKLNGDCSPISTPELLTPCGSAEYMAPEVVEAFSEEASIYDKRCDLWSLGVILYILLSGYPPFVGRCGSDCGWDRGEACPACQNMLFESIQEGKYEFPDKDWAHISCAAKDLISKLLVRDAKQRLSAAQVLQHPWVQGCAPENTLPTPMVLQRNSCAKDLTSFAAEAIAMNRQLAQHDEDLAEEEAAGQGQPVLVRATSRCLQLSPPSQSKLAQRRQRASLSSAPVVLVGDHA

[6] = target: Cyclin-G-associated kinase (Homo sapiens) (UniProt O14976); experiment: Inhibition of wild-type human partial length GAK (G13 to Y338 residues) expressed in bacterial expression system assessed as residual binding level at 1 uM by Kinomescan method relative to control
Cyclin-G-associated kinase (Homo sapiens), sequence (O14976 whole entry, the tested form may be a part): as the sequence (O14976 whole entry, the tested form may be a part) above

[7] = Metabolic stability in human liver microsomes assessed as parent compound remaining at 0.5 uM incubated for 10 mins in presence of NADPH by LC-MS/MS analysis; type: ADME, Microsome; details: read-out: Stability
[8] = target: Phosphatidylinositol 4-phosphate 5-kinase type-1 alpha (Homo sapiens) (UniProt Q99755); experiment: Inhibition of wild-type human full length PIP5K1A (M1 to H562 residues) expressed in bacterial expression system assessed as residual binding level at 1 uM by Kinomescan method relative to control
Phosphatidylinositol 4-phosphate 5-kinase type-1 alpha (Homo sapiens), sequence (Q99755 whole entry, the tested form may be a part): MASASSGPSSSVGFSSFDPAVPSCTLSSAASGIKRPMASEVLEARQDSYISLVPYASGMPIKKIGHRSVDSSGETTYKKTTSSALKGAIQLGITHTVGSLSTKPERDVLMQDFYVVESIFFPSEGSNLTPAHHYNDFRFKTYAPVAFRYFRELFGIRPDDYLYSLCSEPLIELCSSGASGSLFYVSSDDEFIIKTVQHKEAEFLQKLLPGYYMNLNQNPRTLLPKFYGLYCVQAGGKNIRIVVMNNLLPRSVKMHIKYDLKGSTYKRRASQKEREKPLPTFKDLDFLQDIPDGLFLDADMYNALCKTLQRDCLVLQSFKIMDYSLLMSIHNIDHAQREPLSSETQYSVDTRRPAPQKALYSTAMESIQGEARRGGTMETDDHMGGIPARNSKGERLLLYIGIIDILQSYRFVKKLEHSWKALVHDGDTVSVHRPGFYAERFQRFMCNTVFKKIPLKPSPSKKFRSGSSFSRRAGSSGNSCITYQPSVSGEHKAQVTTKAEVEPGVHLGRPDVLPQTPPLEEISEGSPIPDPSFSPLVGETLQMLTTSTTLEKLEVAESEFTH

[9] = target: Dual specificity protein kinase CLK4 (Homo sapiens, UniProt Q9HAZ1); experiment: Inhibition of wild-type human partial length CLK4 (R135 to K481 residues) expressed in bacterial expression system by Kinomescan method
Dual specificity protein kinase CLK4, sequence (Q9HAZ1 whole entry, the tested form may be a part): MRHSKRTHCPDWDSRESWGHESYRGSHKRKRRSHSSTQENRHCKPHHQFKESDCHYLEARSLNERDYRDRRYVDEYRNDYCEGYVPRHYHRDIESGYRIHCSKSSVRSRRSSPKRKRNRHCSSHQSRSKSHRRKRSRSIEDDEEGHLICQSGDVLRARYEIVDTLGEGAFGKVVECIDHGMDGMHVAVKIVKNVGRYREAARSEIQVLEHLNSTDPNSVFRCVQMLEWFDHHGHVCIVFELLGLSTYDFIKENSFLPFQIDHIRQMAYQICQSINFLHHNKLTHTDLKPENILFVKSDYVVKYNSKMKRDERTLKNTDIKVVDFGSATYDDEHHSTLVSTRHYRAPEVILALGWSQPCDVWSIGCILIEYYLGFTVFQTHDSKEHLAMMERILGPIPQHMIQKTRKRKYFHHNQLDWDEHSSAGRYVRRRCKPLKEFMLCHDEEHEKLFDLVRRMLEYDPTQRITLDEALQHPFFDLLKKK

Mu-type opioid receptor = Mu-type opioid receptor (Homo sapiens, UniProt P35372); experiment: Inhibition of mu opioid receptor (unknown origin)
Mu-type opioid receptor, sequence (P35372 whole entry, the tested form may be a part): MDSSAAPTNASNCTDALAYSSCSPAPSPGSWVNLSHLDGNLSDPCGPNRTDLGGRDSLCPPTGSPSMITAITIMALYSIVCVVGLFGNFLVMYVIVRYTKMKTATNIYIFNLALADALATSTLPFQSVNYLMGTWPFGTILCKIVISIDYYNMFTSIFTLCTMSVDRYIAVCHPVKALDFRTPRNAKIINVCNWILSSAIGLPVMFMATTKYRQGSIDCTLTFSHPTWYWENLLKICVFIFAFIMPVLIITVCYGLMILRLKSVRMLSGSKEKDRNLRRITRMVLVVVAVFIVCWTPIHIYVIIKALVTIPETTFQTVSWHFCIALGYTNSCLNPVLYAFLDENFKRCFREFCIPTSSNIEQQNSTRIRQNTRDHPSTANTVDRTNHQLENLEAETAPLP

[10] = target: Serine/threonine-protein kinase RIO2 (Homo sapiens) (UniProt Q9BVS4); experiment: Inhibition of wild-type human partial length RIOK2 (M1 to D313 residues) expressed in mammalian expression system assessed as residual binding level at 1 uM by Kinomescan method relative to control
Serine/threonine-protein kinase RIO2 (Homo sapiens), sequence (Q9BVS4 whole entry, looked up, the tested form may be a part): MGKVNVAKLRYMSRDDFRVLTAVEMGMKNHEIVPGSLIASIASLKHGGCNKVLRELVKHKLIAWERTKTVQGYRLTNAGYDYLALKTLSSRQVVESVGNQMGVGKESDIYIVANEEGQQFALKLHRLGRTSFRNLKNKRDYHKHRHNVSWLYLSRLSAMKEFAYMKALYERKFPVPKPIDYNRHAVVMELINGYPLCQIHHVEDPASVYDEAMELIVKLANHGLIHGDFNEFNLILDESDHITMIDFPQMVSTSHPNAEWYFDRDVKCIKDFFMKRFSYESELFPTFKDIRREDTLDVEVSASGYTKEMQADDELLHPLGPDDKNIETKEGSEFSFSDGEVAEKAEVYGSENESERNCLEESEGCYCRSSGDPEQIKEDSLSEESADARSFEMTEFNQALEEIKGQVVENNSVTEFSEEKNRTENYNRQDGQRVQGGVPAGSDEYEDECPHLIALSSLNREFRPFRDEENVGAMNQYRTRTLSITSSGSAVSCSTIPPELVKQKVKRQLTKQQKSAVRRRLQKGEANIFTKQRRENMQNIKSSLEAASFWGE

Mus musculus [11] = experiment: Antinociceptive activity against formalin-induced nociceptive behavior in C57BL6 mouse assessed as reduction in phase 1 hind paw flinching at 30 mg/kg, sc administered 60 mins prior to formalin challenge by formalin test; type: functional, organism-based
[12] = Unbound drug concentration in brain of Sprague-Dawley rat model of chronic constriction injury-induced neuropathic pain at 3 mg/kg, sc; type: ADME, organism-based; details: in vivo
[13] = target: MAP kinase-interacting serine/threonine-protein kinase 1 (Homo sapiens, UniProt Q9BUB5); experiment: Inhibition of wild-type human full length MKNK1 (M1 to L424 residues) expressed in mammalian expression system by Kinomescan method
MAP kinase-interacting serine/threonine-protein kinase 1, sequence (Q9BUB5 whole entry, the tested form may be a part): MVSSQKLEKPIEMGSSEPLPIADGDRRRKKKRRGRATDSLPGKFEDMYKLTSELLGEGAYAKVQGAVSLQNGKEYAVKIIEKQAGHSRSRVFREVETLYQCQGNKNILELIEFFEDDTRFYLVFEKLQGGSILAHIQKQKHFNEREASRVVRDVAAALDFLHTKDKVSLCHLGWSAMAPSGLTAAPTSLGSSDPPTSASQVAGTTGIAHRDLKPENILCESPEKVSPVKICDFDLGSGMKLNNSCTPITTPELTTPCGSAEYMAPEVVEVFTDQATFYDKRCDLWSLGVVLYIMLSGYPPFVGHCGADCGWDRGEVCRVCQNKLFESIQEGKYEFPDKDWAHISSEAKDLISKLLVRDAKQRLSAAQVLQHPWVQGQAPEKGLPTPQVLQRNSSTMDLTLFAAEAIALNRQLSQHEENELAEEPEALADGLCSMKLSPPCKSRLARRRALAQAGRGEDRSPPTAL

[14] = target: T1, MAP kinase-interacting serine/threonine-protein kinase 2; experiment: Inhibition of wild-type human partial length MKNK2 (G63 to S388 residues) expressed in mammalian expression system assessed as residual binding level at 1 uM by Kinomescan method relative to control
Target sequence in this assay (Q9HBH9 whole entry, looked up, the tested form may be a part): as the sequence (Q9HBH9 whole entry, the tested form may be a part) above

[15] = target: Citron Rho-interacting kinase (Homo sapiens, UniProt O14578); experiment: Inhibition of CRIK (unknown origin) by Kinomescan method
[16] = Inhibition of PKA (unknown origin); parameters: species or system Homo sapiens
Mus musculus [17] = experiment: Antinociceptive activity against formalin-induced nociceptive behavior in C57BL6 mouse assessed as reduction in phase 2 hind paw flinching at 10 mg/kg, sc administered 60 mins prior to formalin challenge by formalin test; type: functional, organism-based
[18] = target: AP2-associated protein kinase 1 (Mus musculus) (UniProt Q3UHJ0); experiment: In vivo inhibition of AAK1 in C57BL6 mouse assessed as suppression of mu2 phosphorylation in brain lysate at 3 mg/kg, sc measured after 30 mins by Western blot analysis relative to control; type: functional, organism-based

## CC(C)C[C@@H](N)C(=O)Nc1ccc(-c2cnco2)c(OC(F)F)c1
Rattus norvegicus [1]
  Activity: 45%
Rattus norvegicus [2]
  Activity: 113%
[3]
  IC50: 1.06 µM
[4]
  Activity: 6.2%
[5]
  IC50: 0.428 µM
[6]
  Activity: 21%
[7]
  remaining at 10 min, 0.5 µM: 84%
[8]
  Activity: 31%
[9]
  IC50: 1.93 µM
Mu-type opioid receptor
  IC50: > 30 µM
[10]
  Activity: 3.8%
Mus musculus [11]
  Activity: Active
[12]
  Drug uptake(free): 0.03 µM
[13]
  IC50: 0.507 µM
[14]
  Activity: 1.4%
[15]
  IC50: 0.12 µM
[16]
  IC50: 0.57 µM
Mus musculus [17]
  Activity: Active
[18]
  inhibition: 13%
